Source: ChEMBL document CHEMBL1201862, “PubChem BioAssay data set” (2004)
Active and inactive are the calls of the source.

Columns and labels:
Cytochrome P450 2C19 = Cytochrome P450 2C19 (Homo sapiens, UniProt P33261); test: Cytochrome panel assay with activity outcomes. Panel member name: p450-cyp2c19 Compounds with AC50 equal or less than 10 uM are considered active; assay type: functional
Cytochrome P450 2C9 = Cytochrome P450 2C9 (Homo sapiens, UniProt P11712)
Cytochrome P450 2D6 = Cytochrome P450 2D6 (Homo sapiens, UniProt P10635);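 further: CYP2D6 member of a cytochrome P450 panel assay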
Vero = test: cells; assay type: functional; conditions: Chlorocebus sabaeus
[1] = target: Dual specificity tyrosine-phosphorylation-regulated kinase 1A (Rattus norvegicus, UniProt Q63470); assay type: biochemical, Homo sapiens
[2] = system: Streptococcus sp. 'group A'; test: growth inhibition of control SK(-) GAS strain, dose response, counter-screen for streptokinase expression inhibitor project, luminescence, kanamycin, BacTiterGlo, confirmation (AID 1900); assay type: functional, organism-based
Streptococcus = test: Group A Streptococcus viability loss, dose response, counter-screen for streptokinase expression inhibitor project, luminescence, BacTiterGlo (AID 1915); assay type: functional, organism-based;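 further: potency for reduction of bacterial viability or growth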
Nonstructural protein 1 = Nonstructural protein 1 (Influenza A virus, UniProt Q194T2); assay type: functional, Influenza A virus (A/California/07/2009(H1N1))
[3] = target: T1, Replicative DNA helicase DnaB (Mycobacterium tuberculosis, UniProt P9WMR3); test: DnaB intein splicing inhibitors, dose response, biochemical, cell-free fluorescence (AID 449749); assay type: functional
T1 sequence (P9WMR3 whole entry): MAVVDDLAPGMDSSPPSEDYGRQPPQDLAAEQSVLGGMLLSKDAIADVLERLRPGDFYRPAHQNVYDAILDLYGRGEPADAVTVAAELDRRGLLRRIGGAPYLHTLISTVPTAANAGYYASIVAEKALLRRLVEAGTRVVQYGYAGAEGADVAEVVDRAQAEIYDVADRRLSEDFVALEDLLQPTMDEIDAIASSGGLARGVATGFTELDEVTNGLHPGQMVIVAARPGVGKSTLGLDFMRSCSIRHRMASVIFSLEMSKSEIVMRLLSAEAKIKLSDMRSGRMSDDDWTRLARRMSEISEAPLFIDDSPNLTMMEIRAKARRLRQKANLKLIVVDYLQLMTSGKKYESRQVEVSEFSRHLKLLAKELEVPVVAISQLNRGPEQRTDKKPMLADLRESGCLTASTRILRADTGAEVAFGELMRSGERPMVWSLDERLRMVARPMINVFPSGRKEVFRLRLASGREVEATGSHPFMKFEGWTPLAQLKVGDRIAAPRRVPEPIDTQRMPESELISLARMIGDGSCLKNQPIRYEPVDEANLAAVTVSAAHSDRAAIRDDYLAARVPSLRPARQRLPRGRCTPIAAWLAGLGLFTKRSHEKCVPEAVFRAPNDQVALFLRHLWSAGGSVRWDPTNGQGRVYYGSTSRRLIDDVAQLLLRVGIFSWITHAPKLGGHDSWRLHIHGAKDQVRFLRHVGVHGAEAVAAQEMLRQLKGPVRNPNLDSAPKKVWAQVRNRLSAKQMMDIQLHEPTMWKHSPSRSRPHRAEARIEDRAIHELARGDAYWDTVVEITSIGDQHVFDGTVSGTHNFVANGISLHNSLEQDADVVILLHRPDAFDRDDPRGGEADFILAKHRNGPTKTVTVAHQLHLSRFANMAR

Protein RecA = target: T2, Protein RecA (Mycobacterium tuberculosis, UniProt P9WHJ3); test: Fluorescence Cell-Free Homogeneous Dose Retest to Identify Inhibitors of RecA-Intein Splicing Activity. [Related pubchem assays (depositor defined):AID2097, AID2223, AID489010, AID492950]; assay type: functional
T2 sequence (P9WHJ3 whole entry): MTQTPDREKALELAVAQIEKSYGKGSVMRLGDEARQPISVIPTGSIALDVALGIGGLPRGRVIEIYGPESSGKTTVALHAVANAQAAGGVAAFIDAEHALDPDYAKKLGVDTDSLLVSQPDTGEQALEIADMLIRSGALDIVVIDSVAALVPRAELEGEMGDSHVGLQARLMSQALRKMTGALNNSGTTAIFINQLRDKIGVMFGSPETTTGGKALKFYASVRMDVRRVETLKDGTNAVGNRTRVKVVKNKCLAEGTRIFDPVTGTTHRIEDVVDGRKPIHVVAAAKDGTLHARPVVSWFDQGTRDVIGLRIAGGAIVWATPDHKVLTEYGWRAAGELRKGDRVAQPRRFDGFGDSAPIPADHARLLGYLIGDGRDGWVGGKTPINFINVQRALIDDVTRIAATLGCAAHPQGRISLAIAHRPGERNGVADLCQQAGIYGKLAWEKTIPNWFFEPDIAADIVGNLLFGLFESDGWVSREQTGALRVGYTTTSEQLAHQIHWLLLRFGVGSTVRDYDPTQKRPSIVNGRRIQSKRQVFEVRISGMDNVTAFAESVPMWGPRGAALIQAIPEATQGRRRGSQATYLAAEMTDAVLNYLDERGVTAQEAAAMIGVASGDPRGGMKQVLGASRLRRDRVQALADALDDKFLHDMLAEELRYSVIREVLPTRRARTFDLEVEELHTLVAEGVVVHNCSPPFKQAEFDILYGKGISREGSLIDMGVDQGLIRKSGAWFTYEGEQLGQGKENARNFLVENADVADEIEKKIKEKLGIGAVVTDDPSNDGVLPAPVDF

BJ [4] = test: cytotoxicity toward BJ-TERT fibroblasts, dose response, cell-based, RAS-independent, luminescence (AID 1933); assay type: functional; conditions: Homo sapiens
BJ [5] = test: cells; assay type: functional, cell-based; conditions: Homo sapiens
[6] = cytotoxicity toward DRD oncogenic fibroblasts, dose response, cell-based, non-viral oncogenic, luminescence (AID 1934); assay type: functional; conditions: Homo sapiens
[7] = cytotoxicity in HEK-293T cells, dose response, cytotoxicity control for TCR NF-kB inhibitor project, luminescence, T-cell screen hits (AID 489026); assay type: functional, cell-based;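 further: cells exposed to compound about 14 hours before the viability readout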
[8] = target: T3, DNA repair and recombination protein RAD54-like (Homo sapiens, UniProt Q92698); test: inhibitors of human RAD54 branch migration, confirmation, biochemical, fluorescence, cherry-picked samples, dose series (AID 651657); assay type: functional
T3 sequence (Q92698 whole entry): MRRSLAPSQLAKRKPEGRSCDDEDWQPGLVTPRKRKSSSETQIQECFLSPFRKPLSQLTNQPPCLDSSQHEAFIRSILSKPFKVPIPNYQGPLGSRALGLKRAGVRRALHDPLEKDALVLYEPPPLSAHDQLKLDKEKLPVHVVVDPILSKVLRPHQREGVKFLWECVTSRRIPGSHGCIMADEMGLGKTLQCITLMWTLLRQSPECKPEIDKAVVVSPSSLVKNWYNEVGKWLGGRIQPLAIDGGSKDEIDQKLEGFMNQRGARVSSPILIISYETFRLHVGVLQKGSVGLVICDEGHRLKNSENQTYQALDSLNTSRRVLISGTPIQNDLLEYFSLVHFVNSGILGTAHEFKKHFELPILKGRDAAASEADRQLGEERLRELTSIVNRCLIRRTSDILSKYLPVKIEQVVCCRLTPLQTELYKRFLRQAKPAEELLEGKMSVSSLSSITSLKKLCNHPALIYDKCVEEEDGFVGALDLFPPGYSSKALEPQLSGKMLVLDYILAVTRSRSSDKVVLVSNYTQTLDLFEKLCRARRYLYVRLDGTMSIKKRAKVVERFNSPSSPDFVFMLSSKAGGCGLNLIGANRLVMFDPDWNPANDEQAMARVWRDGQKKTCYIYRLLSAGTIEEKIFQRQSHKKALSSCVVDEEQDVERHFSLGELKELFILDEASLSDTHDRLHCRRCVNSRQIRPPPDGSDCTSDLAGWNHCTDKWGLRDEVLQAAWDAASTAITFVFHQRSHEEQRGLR

SUMO-activating enzyme = SUMO-activating enzyme (Homo sapiens, UniProt Q9UBT2); test: SUMOylation inhibitor hit validation, confirmation, SUMOylation inhibitor project, biochemical, AlphaScreen (AID 2018); assay type: functional
Cytochrome P450 1A2 = target: T4, Cytochrome P450 1A2 (Homo sapiens, UniProt P05177);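 further: PubChem cytochrome P450 panel assay, CYP1A2 panel member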
T4 sequence (P05177 whole entry): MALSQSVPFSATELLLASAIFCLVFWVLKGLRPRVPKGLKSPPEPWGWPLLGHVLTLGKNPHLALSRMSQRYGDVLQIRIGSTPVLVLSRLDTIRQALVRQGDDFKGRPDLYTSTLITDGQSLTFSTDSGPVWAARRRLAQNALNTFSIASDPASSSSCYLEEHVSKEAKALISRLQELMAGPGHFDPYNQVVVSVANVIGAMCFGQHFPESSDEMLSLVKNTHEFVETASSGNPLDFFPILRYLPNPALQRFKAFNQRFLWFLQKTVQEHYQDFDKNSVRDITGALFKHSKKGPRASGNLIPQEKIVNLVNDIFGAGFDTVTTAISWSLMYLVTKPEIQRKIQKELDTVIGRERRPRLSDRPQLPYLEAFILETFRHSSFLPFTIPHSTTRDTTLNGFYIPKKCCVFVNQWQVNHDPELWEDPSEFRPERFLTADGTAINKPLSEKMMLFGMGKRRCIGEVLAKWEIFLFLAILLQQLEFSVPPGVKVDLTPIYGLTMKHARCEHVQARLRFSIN

[9] = Luminescence Cell-Based Dose Confirmation HTS to Identify Activators of 5'UTR Stem-Loop Driven Alpha-Synuclein mRNA Translation in H4 Neuroglioblastoma Cells. [Related pubchem assays: 1829 (Project Summary), 1814 (Primary HTS)]; assay type: functional
[10] = Luminescence Cell-Based Dose Response HTS to Identify Activators of Luciferase Translation or Activity in H4 […] Cells. [Related pubchem assays: 1829 (Project Summary), 1814 (Primary HTS)]; assay type: functional
H4 = test: Luminescence Cell-Based Dose Response HTS to Identify Activators of 5'UTR Stem-Loop Driven Prion Protein mRNA Translation in H4 Neuroglioblastoma Cells. [Related pubchem assays: 1829 (Project Summary), 1814 (Primary HTS)]; assay type: functional; conditions: Homo sapiens

Sequence of Cytochrome P450 2C19 (P33261 whole entry): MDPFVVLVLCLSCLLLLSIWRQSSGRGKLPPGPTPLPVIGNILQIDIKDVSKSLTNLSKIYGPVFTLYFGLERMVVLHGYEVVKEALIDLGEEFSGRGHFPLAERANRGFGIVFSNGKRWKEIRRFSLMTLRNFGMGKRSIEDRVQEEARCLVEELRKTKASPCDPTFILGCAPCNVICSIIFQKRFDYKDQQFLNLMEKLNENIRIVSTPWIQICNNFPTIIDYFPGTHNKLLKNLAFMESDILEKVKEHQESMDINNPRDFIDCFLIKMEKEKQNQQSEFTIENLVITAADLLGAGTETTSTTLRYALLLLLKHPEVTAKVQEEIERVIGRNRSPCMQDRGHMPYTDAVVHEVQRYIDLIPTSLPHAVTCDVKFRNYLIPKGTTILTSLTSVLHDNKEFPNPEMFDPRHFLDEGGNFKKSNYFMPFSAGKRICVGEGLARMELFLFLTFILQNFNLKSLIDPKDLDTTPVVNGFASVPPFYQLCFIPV
Sequence of SUMO-activating enzyme (Q9UBE0 whole entry): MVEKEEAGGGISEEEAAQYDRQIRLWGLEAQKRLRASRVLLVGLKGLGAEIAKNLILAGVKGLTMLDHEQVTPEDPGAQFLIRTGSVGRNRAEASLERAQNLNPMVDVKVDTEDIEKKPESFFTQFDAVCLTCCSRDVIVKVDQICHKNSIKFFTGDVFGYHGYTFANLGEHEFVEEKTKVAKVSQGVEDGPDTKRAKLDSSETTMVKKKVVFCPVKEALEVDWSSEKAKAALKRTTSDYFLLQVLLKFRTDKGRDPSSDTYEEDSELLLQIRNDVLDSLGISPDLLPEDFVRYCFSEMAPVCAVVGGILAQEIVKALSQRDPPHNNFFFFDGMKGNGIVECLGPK
Sequence of SUMO-activating enzyme (Q9UBT2 whole entry): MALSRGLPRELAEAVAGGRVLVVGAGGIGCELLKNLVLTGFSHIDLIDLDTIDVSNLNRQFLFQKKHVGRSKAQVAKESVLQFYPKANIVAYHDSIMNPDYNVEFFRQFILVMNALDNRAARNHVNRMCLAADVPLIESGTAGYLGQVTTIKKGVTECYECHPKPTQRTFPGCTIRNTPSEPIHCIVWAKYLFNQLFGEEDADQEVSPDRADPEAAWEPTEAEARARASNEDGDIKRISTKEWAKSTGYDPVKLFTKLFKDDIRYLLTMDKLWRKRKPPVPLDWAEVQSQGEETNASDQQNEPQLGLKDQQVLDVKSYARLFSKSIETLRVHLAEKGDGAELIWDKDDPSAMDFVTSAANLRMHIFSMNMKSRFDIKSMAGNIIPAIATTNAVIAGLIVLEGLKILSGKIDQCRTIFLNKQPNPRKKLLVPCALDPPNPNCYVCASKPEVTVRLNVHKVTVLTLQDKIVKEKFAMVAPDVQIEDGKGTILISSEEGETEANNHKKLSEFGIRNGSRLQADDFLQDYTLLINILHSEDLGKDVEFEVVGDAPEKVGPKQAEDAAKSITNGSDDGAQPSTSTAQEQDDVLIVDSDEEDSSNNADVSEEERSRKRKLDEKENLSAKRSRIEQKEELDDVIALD
Sequence of Cytochrome P450 2D6 (P10635 whole entry): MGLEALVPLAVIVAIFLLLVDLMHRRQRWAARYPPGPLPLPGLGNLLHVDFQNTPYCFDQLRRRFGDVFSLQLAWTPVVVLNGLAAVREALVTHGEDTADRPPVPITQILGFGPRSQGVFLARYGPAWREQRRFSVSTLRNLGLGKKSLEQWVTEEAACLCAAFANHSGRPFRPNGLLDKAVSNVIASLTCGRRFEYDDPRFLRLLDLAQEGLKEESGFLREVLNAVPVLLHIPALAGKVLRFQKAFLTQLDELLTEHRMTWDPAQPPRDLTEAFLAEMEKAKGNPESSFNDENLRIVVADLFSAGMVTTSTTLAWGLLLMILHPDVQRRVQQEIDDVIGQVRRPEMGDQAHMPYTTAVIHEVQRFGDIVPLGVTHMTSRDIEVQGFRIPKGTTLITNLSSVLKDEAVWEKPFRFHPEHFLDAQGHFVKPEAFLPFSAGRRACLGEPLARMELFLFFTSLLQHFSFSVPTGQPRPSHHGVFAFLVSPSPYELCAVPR
Sequence of Cytochrome P450 2C9 (P11712 whole entry): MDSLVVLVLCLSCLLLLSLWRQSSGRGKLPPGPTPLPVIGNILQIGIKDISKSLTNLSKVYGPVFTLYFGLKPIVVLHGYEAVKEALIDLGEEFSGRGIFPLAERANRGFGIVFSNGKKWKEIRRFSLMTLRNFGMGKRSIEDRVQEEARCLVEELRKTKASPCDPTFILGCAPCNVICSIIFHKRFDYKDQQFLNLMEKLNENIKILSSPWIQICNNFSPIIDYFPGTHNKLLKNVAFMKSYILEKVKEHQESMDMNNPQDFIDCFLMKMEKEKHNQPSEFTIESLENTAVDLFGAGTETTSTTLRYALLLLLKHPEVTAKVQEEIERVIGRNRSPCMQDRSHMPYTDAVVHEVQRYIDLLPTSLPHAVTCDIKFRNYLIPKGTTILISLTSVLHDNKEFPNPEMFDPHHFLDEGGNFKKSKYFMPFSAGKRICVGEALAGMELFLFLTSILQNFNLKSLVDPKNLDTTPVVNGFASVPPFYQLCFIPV
Sequence of Nonstructural protein 1 (Q194T2 whole entry): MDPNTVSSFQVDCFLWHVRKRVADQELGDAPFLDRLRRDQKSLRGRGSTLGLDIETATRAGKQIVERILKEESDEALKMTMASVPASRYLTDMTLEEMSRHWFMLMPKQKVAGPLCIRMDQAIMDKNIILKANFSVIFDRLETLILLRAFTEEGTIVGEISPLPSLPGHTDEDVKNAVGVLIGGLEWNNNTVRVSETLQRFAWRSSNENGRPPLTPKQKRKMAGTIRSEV

For `CC(C)(C)c1ccc(OC(=O)Cn2c(C(F)(F)F)nc3ccccc32)cc1`, the AC50 (Cytochrome P450 2C19) was “inconclusive”, the AC50 (Cytochrome P450 2C9) was 0.891 µM (inconclusive) and the AC50 (Cytochrome P450 2D6) was “inconclusive”.

For `COc1cc2cc(c1Cl)N(C)C(=O)C[C@H](OC(=O)C(C)C)[C@]1(C)O[C@@H]1[C@@H](C)[C@H]1C[C@](O)(NC(=O)O1)[C@@H](OC)/C=C\C=C(\C)C2`, the AC50 (Cytochrome P450 2C19) was “inconclusive” and the AC50 (Cytochrome P450 2D6) was “inconclusive”.

With `CC1CCC(C(C)C)C2=C1C(C#N)(C#N)C(C#N)(C#N)C(c1ccccc1)N2` (stereo not drawn) the CC50 (Vero) was 16.7 µM (active) and the AC50 [1] was 5.69 µM (active).

In the case of `O=C(O)c1cc2ccccc2c(S(=O)(=O)O)c1O`, the AC50 (Cytochrome P450 2D6) is reported as “inconclusive”.

In the case of `O=c1c(O[C@@H]2O[C@H](CO)C(O)C2O)c(-c2ccc(O)c(O)c2)oc2cc(O)cc(O)c12` (stereo partly drawn), the AC50 [1] is reported as 18 µM (active).

With `O=C(NC(=S)NNC(=O)c1ccccc1O)c1ccco1` the EC50 [2] was 3.27 µM (active), the EC50 (Streptococcus) was 7.67 µM (active) and the IC50 (Nonstructural protein 1) was 8.7 µM (active). For the same molecule, the AC50 [3] was 95.2 µM (active) and the EC50 (Protein RecA) was 114 µM (inconclusive).

In the case of `COc1cc(-c2noc(C)c2-c2ccc(N(C)C)nc2)cc(OC)c1OC`, the EC50 (BJ [4]) is reported as 0.174 µM (active), the EC50 (BJ [5]) is reported as 15.7 µM (inconclusive) and the EC50 [6] is reported as 4.06 µM (inconclusive). The IC50 [7] was > 80 µM (inactive).

For `CCNCCNC(=O)c1c(O)c2cccc3c2n(c1=O)CCC3`, the AC50 [8] was 86.3 µM (active).

In the case of `Cc1ccc(C(=O)Nc2sc3c(c2C(=O)NCc2ccco2)CCCC3)cc1`, the IC50 (SUMO-activating enzyme) is reported as 29.9 µM (active).

With `O=C(Nc1ccc2ccccc2n1)c1ccccc1` the AC50 [1] was 77.5 µM (active).

With `CN(C)CCNC(=O)c1cc2c(=O)n(C)c3ccccc3c2n1C` the AC50 [8] was 16.2 µM (active).

For `CN(C)c1ncnc2c1ncn2CCn1cnc2c(N(C)C)ncnc21`, the AC50 (Cytochrome P450 1A2) was 6.31 µM (inconclusive) and the AC50 (Cytochrome P450 2D6) was “inconclusive”.

For `CCc1ccc2nc(NC(=O)C3CSC4(C)CCC(=O)N34)sc2c1` (stereo not drawn), the EC50 [9] was > 120 µM (not active), the EC50 [10] was 19.6 µM (active) and the EC50 (H4) was 6.99 µM (active). The AC50 [1] was 7.62 µM (active).

For `O=C(N/N=C\c1cn[nH]c1-c1ccc(Cl)cc1)c1cccs1`, the IC50 (SUMO-activating enzyme) was > 100 µM (inactive).

In the case of `Cc1nn(-c2ccccc2)c2sc(C(=O)NNC(=O)COc3ccccc3)cc12`, the IC50 (SUMO-activating enzyme) is reported as 33.6 µM (active).

With `COc1ccc(/C=N/N(C(C)=O)c2nc(-c3ccc(C)cc3)cs2)cc1` the AC50 (Cytochrome P450 2C19; read-out: AC50) was 0.447 µM (inconclusive), the AC50 (Cytochrome P450 2C9) was 3.16 µM (inconclusive) and the AC50 (Cytochrome P450 2D6) was “inconclusive”.
